Laboratory results taken from paper PMC7824826, “SZR-104, a Novel Kynurenic Acid Analogue with High Permeability through the Blood–Brain Barrier” (Pharmaceutics, 2021).

Assays:
[1] = tested on: in vitro blood–brain barrier model (primary rat brain endothelial cells and pericytes on Transwell filters, glial-conditioned media); experiment: Permeability assay through the in vitro BBB model; format: in vitro ADME; conditions: for Papp % (permeability coefficient compared to KYNA) / Papp% (permeability coefficient compared to sodium-fluorescein): 10 µM in top compartment; for Papp % (permeability coefficient compared to KYNA): N = 3, relative to KYNA; for Differences among permeability of KYNA, xanthurenic acid and 39B: 30 and 60 min; for Papp% (permeability coefficient compared to sodium-fluorescein): N = 2, relative to sodium-fluorescein; for Permeability compared to other analogues: p < 0.05; for BBB penetration compared to the other derivatives tested: conclusion
Protocol: Primary rat brain endothelial cells (RBECs) were isolated from 2-week old rats. Animals were sacrificed by cervical dislocation. Briefly, after removal of meninges, cerebral cortices were cut into small pieces and digested in two steps with 1 mg/mL collagenase type 2 and 1 mg/mL collagenase/dispase, followed by centrifugation on a percoll gradient (all from Sigma-Aldrich, St. Louis, MO, USA). Isolated microvessels were plated on fibronectin/collagen-coated dishes. Endothelial cells growing out of the microvessels were cultured in DMEM/F12 (Thermo Fisher Scientific, Waltham, MA, USA), 10% plasma-derived serum (PDS, First Link UK Ltd, Birmingham, UK) and growth factors. In the first two days, 4 µg/mL puromycin (Sigma-Aldrich) was added to remove contaminating cells. Cells were frozen in liquid nitrogen and passage 1 cells were further used. Rat brain pericytes were obtained from cerebral microvessels plated onto rat-tail collagen-coated dishes in PM medium (ScienCell, Carlsbad, CA, USA) complemented with 5% fetal bovine serum (FBS) and penicillin/streptomycin. Cells were split into new dishes, frozen in liquid nitrogen and passage 4 cells were further used. Glial cultures (>90% astrocytes) were prepared from newborn rats and cultured on poly-L-lysine-coated surfaces in DMEM (Thermo Fisher Scientific) and 10% FBS (Thermo Fisher Scientific). After reaching confluence, conditioned media was collected twice a week, centrifuged, sterile filtered and kept at −20 °C.
Pericytes were plated onto the backside of 12-well semipermeable filters (Corning-Costar Transwell Clear; pore size: 0.4 μm; 1.5 × 10^4 cells/filter). The next day, RBECs were plated onto the upper surface of the filters. […] TEER was followed until reaching plateau of 150–250 Ohm × cm^2.
Transwell filters containing endothelial cells and pericytes were removed from the CellZscope instrument. Filters were washed with Ringer-HEPES solution (pH = 7.4). […] The bottom compartment was loaded with Ringer-HEPES. Filters were placed to 37 °C and gentle shaking (110 rpm) was applied. Samples were taken from the basolateral side after 30 and 60 min. The concentrations of the samples were quantitated as described below and apparent permeability was calculated using the formula: Papp = dQ/(dT × A × C0), where dQ is the transported amount, dT is the incubation time, A is the surface of filter (1.12 cm^2), and C0 is the initial concentration. Statistical analysis was performed with ANOVA and Bonferroni’s post-hoc test.
The concentrations of the samples were quantitated with an Agilent 1100 HPLC system (Agilent Technologies, Santa Clara, CA, USA), consisting of a binary pump, a micro vacuum degasser, a thermostated column compartment, an automatic liquid sampler, a MS detector (LCMSD VL), and ChemStation data managing software. Chromatographic separations with the HPLC-MS system were performed on a Kinetex C18 column, 100 × 4.6 mm 2.6 μm particle size (Phenomenex, Torrance, CA, USA) with a mobile phase composition of 0.05% aqueous HCOOH/ACN = 90/10 (v/v), applying isocratic elution. The flow rate and the injection volume were 1 mL/min and 20 µL, respectively. The mass spectrometer was used in positive electrospray ionization mode. The drying gas temperature, drying gas flow rate, nebulizer pressure and capillary voltage were 350 °C, 13 L/min, 60 psi and 3500 V, respectively. […]

NTC = tested on: NTC; design: method as in PMID 27919017; conditions: cited from earlier work
[2] = tested on: PACAP mRNA expression in nucleus trigeminalis caudalis; design: method as in PMID 29387039; conditions: animal model of migraine; cited from earlier work
MAPK and NFκB = conditions: intraperitoneally administered; cited from earlier work
[3] = tested on: c-fos and glutamate in NTC neurons; design: method as in PMID 28337634; conditions: systematic injection; cited from earlier work
[4] = tested on: transgenic mouse model of HD; design: method as in PMID 21194001; conditions: cited from earlier work
hippocampus = tested on: hippocampus; design: method as in PMID 22231843; conditions: systemic administration; cited from earlier work
[5] = tested on: human lymphoma U-937 cells; design: method as in PMID 31316502; conditions: U-937 cells infected with Staphylococcus aureus; cited from earlier work

O=C(O)c1[nH]c2c(O)cccc2c(=O)c1CN1CCOCC1 [39B, 8-Hydroxy-3-(Morpholinomethyl)-4-Oxo-1,4-Dihydroquinoline-2-Carboxylic Acid]
Papp % (permeability coefficient compared to KYNA) ([1]; 30 min): 54%
Papp % (permeability coefficient compared to KYNA) ([1]; 60 min): 74%
Differences among permeability of KYNA, xanthurenic acid and 39B ([1]; 10 µM): not statistically significant

O=C(O)c1cc(=O)c2ccccc2[nH]1 [KYNA, kynurenic acid]
Nitroglycerin-induced neuronal activation in NTC (antihyperalgesic effect) (NTC): attenuating
Electrical TRG stimulation-induced PACAP mRNA expression in NTC [2]: decreased
Overexpression of MAPK and NFκB (MAPK and NFκB): reduced
Papp % (permeability coefficient compared to KYNA) ([1]; 30 min): 100%
Papp % (permeability coefficient compared to KYNA) ([1]; 60 min): 100%
Differences among permeability of KYNA, xanthurenic acid and 39B ([1]; 10 µM): not statistically significant
Elevated levels of c-fos and glutamate in NTC neurons [3]: abolished

CN(C)CCNC(=O)c1cc(=O)c2ccccc2[nH]1 [SZR-72, N-(2-N,N-dimethylaminoethyl)-4-oxo-1H-quinoline-2-carboxamide]
Nitroglycerin-induced neuronal activation in NTC (antihyperalgesic effect) (NTC): attenuating
Electrical TRG stimulation-induced PACAP mRNA expression in NTC [2]: decreased
Overexpression of MAPK and NFκB (MAPK and NFκB): reduced
Atrophy of the striatal neurons [4]: completely prevented
Hypolocomotion [4]: ameliorated
Lifetime of mice [4]: prolonged
Elevated levels of c-fos and glutamate in NTC neurons [3]: abolished

CN(C)CCNC(=O)c1nc2ccccc2c(O)c1CN1CCCCC1 [SZR-100]
Papp% (permeability coefficient compared to sodium-fluorescein) ([1]; 60 min): 177%

O=C(NCCN1CCCC1)c1nc2ccccc2c(O)c1CN1CCCCC1 [SZR-101]
Papp% (permeability coefficient compared to sodium-fluorescein) ([1]; 60 min): 131%

CN(C)CCNC(=O)c1nc2ccccc2c(O)c1CN1CCOCC1 [SZR-104, N-(2-(dimethylamino)ethyl)-3-(morpholinomethyl)-4-hydroxyquinoline-2-carboxamide]
Population spike activity in the hippocampus (hippocampus): decreased
Protection against pentylenetetrazol-induced epileptiform seizures (hippocampus): provided protection
Papp % (permeability coefficient compared to KYNA) ([1]; 30 min): 210%
Papp% (permeability coefficient compared to sodium-fluorescein) ([1]; 60 min): 325%
Papp % (permeability coefficient compared to KYNA) ([1]; 60 min): 222%
Permeability compared to other analogues ([1]; 10 µM, 60 min): significantly higher
Permeability compared to KYNA, xanthurenic acid or 39B ([1]; 10 µM, both at 30 min and 60 min, p < 0.01): significantly higher permeability
BBB penetration compared to the other derivatives tested [1]: high BBB penetration
TNF-α production [5]: reduced
mRNA expression of TSG-6 [5]: increased

O=C(NCCN1CCCC1)c1nc2ccccc2c(O)c1CN1CCOCC1 [SZR-105]
Papp% (permeability coefficient compared to sodium-fluorescein) ([1]; 60 min): 319%
Permeability compared to other analogues ([1]; 10 µM, 60 min): significantly higher
BBB penetration compared to the other derivatives tested [1]: high BBB penetration
TNF-α production [5]: reduced
mRNA expression of TSG-6 [5]: increased

CN(C)CCNC(=O)c1nc2ccccc2c(O)c1CN1CCCC1 [SZR-106]
Papp% (permeability coefficient compared to sodium-fluorescein) ([1]; 60 min): 230%

O=C(NCCN1CCCC1)c1nc2ccccc2c(O)c1CN1CCCC1 [SZR-107]
Papp% (permeability coefficient compared to sodium-fluorescein) ([1]; 60 min): 156%

O=C(O)c1cc(O)c2cccc(O)c2n1 [xanthurenic acid]
Papp % (permeability coefficient compared to KYNA) ([1]; 30 min): 110%
Papp % (permeability coefficient compared to KYNA) ([1]; 60 min): 89%
Differences among permeability of KYNA, xanthurenic acid and 39B ([1]; 10 µM): not statistically significant
